{"source": "patent US20060040909A1", "about": "“Selenophene compounds” (DEVELOPMENT CENTER FOR BIOTECHNOLOGY, priority 2004, published 2006)", "test_system": "Hep-3B liver cancer cells", "test": "In vivo assay, Hep-3B cells transplanted subcutaneously into athymic mice", "conditions": "intraperitoneally, once every two days, 14th day, vs control group", "method": "Compound 3 was tested for its efficacy against Hep-3B liver cancer cells implanted in mice of two treated groups at a […] dosage of 50 mg/kg and 75 mg/kg. In a control group, mice bearing Hep-3B liver cancer cells were not treated with any test compound. Male athymic mice (Ncr nu/nu) of 4-6 weeks of age and weighing 20-25 g were used. Mice were housed in cages in ventilated cabinets and provided sterilized pellet diet and sterile water ad libitum. The temperature was kept between 23-25° C. and a humidity of about 50±10%. Light of the housing area was on a 12-hour light/dark cycle. All experimentation was performed under the IACUC guidelines adopted by the Development Center for Biotechnology, Taiwan. Hep-3B cells were transplanted subcutaneously into athymic mice. In the treated groups, when the tumor reached a volume of about 50 mm^3, mice were treated with compound 3 at a dosage of 50 mg/kg or 75 mg/kg once every two days for three times. The treated groups and the control group each had 7 mice. Compound 3 was administered intraperitoneally. The sizes of tumors were measured using a caliper at least twice a week and the tumor volume (TV) was calculated. Body weights were also monitored along with tumor volume measurement. The percentage of tumor growth was determined by dividing the mean TV of the treated group by the mean TV of a control group.", "data": [{"molecule": "Cn1c(-c2ccc(CO)[se]2)cc(CO)c1-c1ccc(CO)[se]1", "note": "[Compound 3]", "values": [{"measurement": "mean TV (tumor volume) reduced", "setting": "three doses of 50 mg/kg", "result": 37, "unit": "%"}, {"measurement": "mean TV (tumor volume) reduced", "setting": "three doses of 75 mg/kg", "result": 63, "unit": "%"}]}]}
